From publication PMC9863764, “Roles of Human Liver Cytochrome P450 Enzymes in Tenatoprazole Metabolism” (Pharmaceutics, 2022)
Values joined by “and” are separate entries in the source; they are usually repeats but may differ in a detail not shown here. Equal values may be shown once. Values belong to the molecule of their own block, whether it stands above or below them.

Columns and labels:
Assay type in all cases: in vitro ADME
[1] = target: T1, human CYP3A4 (Homo sapiens, UniProt P08684); test: Sulfoxidation of tenatoprazole sulfide by recombinant CYP3A4 (chiral chromatography)
T1 construct: made in house; host or cells: Escherichia coli (membrane fractions)
Procedure: The sulfoxidation reaction of tenatoprazole sulfide by CYP3A4 was measured by chiral chromatography. […] The reaction was initiated by adding NGS at 37 °C. […] After the residues were solubilized in 180 μL mobile phase, 30 μL samples were injected onto a Chiralpak AD column (4.6 × 150 mm, 10 μm; Daicel Corporation, Osaka, Japan) with a hexane-ethanol mixture (30:70, v/v) as the mobile phase. The products formed were analyzed by HPLC at […]. […] The kinetic parameters (kcat and Km) were determined by using a Michaelis-Menten nonlinear regression analysis with GraphPad Prism (GraphPad Software, San Diego, CA, USA).

[2] = test system: human liver microsomes (HLMs); test: Time course of oxidation of tenatoprazole and tenatoprazole sulfide by human liver microsomes (HPLC); conditions: human, 12 h, 500 μM, pH 7.4
Procedure: A racemate of tenatoprazole was used in this work because the chiral tenatoprazoles currently are not commercially available. The reactions using HLMs contained incubation at 37 °C in 0.25 mL mixtures containing P450 (0.5 mg protein/mL) in 100 mM potassium phosphate buffer (pH 7.4), an NADPH-generating system (NGS, final concentration of 10 mM glucose-6-phosphate, 0.50 mM NADP^+, 1.0 IU yeast glucose-6-phosphate dehydrogenase per mL), and 0.1 mM of tenatoprazole or tenatoprazole sulfide. Incubations generally were performed for 2 h in the presence or absence of the NGS. Tenatoprazole and its metabolites were extracted twice using cold ethyl acetate as an organic solvent. Then centrifugation (1000× g, 20 min) was done to separate the organic layer from the aqueous layer. Omeprazole was added to this solution as an internal standard (IS) at a final 20 μM concentration. The organic layer was concentrated under nitrogen gas stream. The dried residues were then dissolved in the mobile phase (180 μL) and 30 μL was injected onto the column.
High-performance liquid chromatography (HPLC) was performed on the basis of a previously developed method for tenatoprazole and its metabolites, as described elsewhere. The analytical column was a Gemini C18 column (4.6 × 150 mm, 5 μm; Phenomenex), and the HPLC mobile phase consisted of acetonitrile and 5 mM potassium phosphate buffer (pH 7.3) (25:75, v/v). The substrate and its metabolites were detected at A302. The HPLC profile of the authentic compounds (i.e., tenatoprazole and its metabolites) were measured to compare to identify the major metabolites of tenatoprazole and tenatoprazole sulfide produced by HLMs.
The time course of the oxidation of tenatoprazole and tenatoprazole sulfide by HLMs (0.5 mg protein/mL) was analyzed to the estimated yield of metabolites and percentage of each metabolite using 0.60 mM substrate in 0.25 mL of 0.10 M potassium phosphate buffer (pH 7.4). After NGS was added to initiate the reaction, the samples were incubated for the designated time (i.e., 2, 5, 10, and 30 min, and 1, 2, 4, 8, 12, and 24 h) at 37 °C. Product formation was quantified using HPLC analysis, as mentioned above.
Calibration standard curves of tenatoprazole were made using a blank control sample (a reaction mixture without substrate and IS) and 12 samples containing tenatoprazole and omeprazole (IS) covering the concentration ranges of 1–500 μM, as described previously. The peak area ratio of tenatoprazole to IS was linear with respect to the analyte concentration over the range of 1–500 μM. The metabolites were quantified by comparing the peak areas of each metabolite to the mean peak areas of the IS (20 μM omeprazole).

[3] = target: T1, human CYP3A4; test: Steady-state kinetics of tenatoprazole oxidation by recombinant CYP3A4; conditions: 30 min incubation, LC-QTOF-MS
Procedure: Pooled liver microsomes from human samples were obtained from ThermoFisher Scientific (Waltham, MA, USA). […] Membrane fractions expressing both P450 and CPR of E. coli were prepared as described previously and were used for the catalytic activity assays. […] The reaction was started by adding NGS and the incubation was continued for the indicated time at 37 °C. Incubation was then stopped by adding ice-chilled ethyl acetate (0.50 mL) and omeprazole (IS) was added to a final concentration of 20 μM. […] Phenomenex, Torrance, CA, USA). The products formed were analyzed by HPLC at […]. The HPLC profile of the authentic chemicals (i.e., tenatoprazole, tenatoprazole sulfide, and their metabolites) were used to identify the major metabolites of tenatoprazole and tenatoprazole sulfide produced by the recombinant P450s. […] The kinetic parameters (kcat and Km) were determined by using a Michaelis-Menten nonlinear regression analysis with GraphPad Prism (GraphPad Software, San Diego, CA, USA). To further characterize the nature of the metabolites, the reaction mixtures were additionally analyzed by a 6530 Quadrupole Time-of-Flight (QTOF) mass spectrometer (MS) (Agilent, Santa Clara, CA, USA) coupled with a 1290 Infinity ultra-performance liquid chromatography (UPLC) system (Agilent). […] The reaction was initiated by adding NGS at 37 °C. […] Then, the upper layer was transferred to a glass tube and dried under nitrogen stream. The residues were reconstituted in 0.30 mL acetonitrile, then 1 μL samples were injected into an LC-MS system. The analytical column was a Hypersil Gold C18 column (100 × 2.1 mm, 1.9 μm; ThermoFisher Scientific). […] A gradient program was used for HPLC separation, and the flow rate was 0.4 mL/min. […] The column and autosampler were kept at 35 °C and 4 °C, respectively, during analysis. Electrospray ionization was performed in the positive ion mode. The sheath gas flow rate was 8 L/min. The flow rate of drying gas was 12 L/min at 350 °C, and the nebulizer's temperature was set at 350 °C. The capillary voltage was 4500 V in the positive mode, and that of the fragmentor was 175 V. Data acquisition were done over a scan range from 50 m/z to 1000 m/z in the centroid mode. A reference compound (C18H18O6N3P3F24; [M+H]^+ = 922.0098) was used to correct all of the masses. Tandem mass spectrometry (MS/MS) data were acquired in profile mode via autoanalysis for structural characterization with 30 eV of the collision energy.

T1 sequence (P08684 whole entry): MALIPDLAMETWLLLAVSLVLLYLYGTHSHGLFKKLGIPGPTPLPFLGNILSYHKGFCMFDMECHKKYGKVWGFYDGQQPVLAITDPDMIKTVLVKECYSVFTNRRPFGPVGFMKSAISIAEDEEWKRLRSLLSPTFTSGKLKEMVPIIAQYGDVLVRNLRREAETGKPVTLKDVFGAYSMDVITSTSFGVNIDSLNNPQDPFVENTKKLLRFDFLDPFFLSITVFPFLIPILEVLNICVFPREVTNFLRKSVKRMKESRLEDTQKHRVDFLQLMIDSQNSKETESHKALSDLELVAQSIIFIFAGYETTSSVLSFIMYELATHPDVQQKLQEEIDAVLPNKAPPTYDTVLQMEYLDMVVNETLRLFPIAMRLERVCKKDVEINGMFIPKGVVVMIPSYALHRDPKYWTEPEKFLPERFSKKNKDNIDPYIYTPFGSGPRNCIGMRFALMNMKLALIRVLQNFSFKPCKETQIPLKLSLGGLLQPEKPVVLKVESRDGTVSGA

Structure (SMILES): COc1ccc2[nH]c([S@+]([O-])Cc3ncc(C)c(OC)c3C)nc2n1 [R-tenatoprazole]
fold higher catalytic efficiency of R-tenatoprazole formation than S-tenatoprazole formation ([1]; substrate tenatoprazole sulfide, CYP3A4): 1.7 fold
kcat of product formation ([1]; substrate tenatoprazole sulfide, recombinant CYP3A4, chiral chromatography, label = product formed): 0.0667 s⁻¹ and 0.0667 ± 0.005 s⁻¹

sulfoxidation activity to produce tenatoprazole ([1]; recombinant CYP3A4, substrate tenatoprazole sulfide): showed the sulfoxidation activity
conversion yield to tenatoprazole sulfide [2]: 94.8%
tenatoprazole sulfide remained ([2]; microsomes): More than 99%
Structure (SMILES): COc1ccc2[nH]c(SCc3ncc(C)c(OC)c3C)nc2n1 [tenatoprazole sulfide, Tenatoprazole sulfide]

Structure (SMILES): COc1ccc2[nH]c(SCc3c(C)c(OC)c(CO)c[n+]3[O-])nc2n1 [1′-N-oxy-5′-OH tenatoprazole sulfide, 1′-N-oxy-5′-hydroxytenatoprazole sulfide]
amount of metabolite observed in CYP3A4-catalyzed reaction [3]: only trace amounts
